Target: Activin receptor type-2A (ACVR2A) (Homo sapiens) (UniProt P27037)
Experiment: Inhibition of human recombinant ACTR2 (162 to end residues) using casein as substrate incubated for 120 mins in presence of [gamma-33P]ATP by radiometric scintillation counting analysis

## CN(C)c1ccc(C(=O)Nc2cccc(NC(=O)COc3ccc4c(=O)ccoc4c3)c2)cc1
  IC50: > 10 µM
